Test results published in patent publication US11690814B2, “Suplatast tosilate for use in the treatment of cough associated with interstitial lung disease” (Conrig Pharma ApS, priority 2016, dated 2023).
Entries after “also recorded” stand apart in the source; their conditions may differ. Like-named read-outs stand apart in the source and are kept apart here.

Tests used:
[1] = test system: refractory chronic dry cough following lung cancer surgery; conditions: cited from earlier work
[2] = test system: bleomycin-treated guinea pigs (capsaicin inhalation-induced cough); experiment: 30 uM capsaicin cough challenge on bleomycin-treated animals (pre-clinical model of pulmonary fibrosis); assay type: in vivo, guinea pig; conditions: for inhibition at 30 mg/kg: Cavia porcellus, ip; for mean cough, 10 min exposure: bleomycin-treated (14 days after 8 U/kg intratracheal), 30 mg/kg i.p. 30 min before 30 uM capsaicin, vehicle 52.9; for mean cough, 10 min exposure / mean cough, 5 min observation / mean cough, 10 + 5 min: n=14-16; for antitussive effect (conclusion in words): bleomycin-treated animals, capsaicin challenge; for mean cough, 5 min observation: 5 min post-exposure period, vehicle 22.4; for mean cough, 10 + 5 min: vehicle 75.3
Experimental: (§1) The study was conducted as described in example 2, with the following exceptions. The bleomycin-induced cough modes is described J. A. Fernandez-Blanco et al: Clinical Science (2015) 129, 1001-1010).
(§2) The objective of the present study was to evaluate the potential anti-tussive effect of suplatast tosilate on capsaicin inhalation-induced cough on naïve and bleomycin-treated guinea pigs.
(§3) Male guinea pigs 300-350 g bodyweight (Harlan MD, distributed by INNOVO Ltd., Hungary) were used. The animals were housed in individually ventilated cabinets in a temperature-controlled and ventilated environment (21-23° C.) with a 12-hour light-dark cycle. Water and standard ascorbic acid containing guinea pig chow were provided ad libitum. The protocol has been approved by the Hungarian Food Chain Safety and Animal Health Directorate (PEI/001/3083-6/2014) and was carried out in accordance with European Directive 86/609/EEC.
(§4) Suplatast tosilate (racemate) and reference compound codeine were dissolved in saline ([…]) at 15 mg/mL concentration. Suplatast tosilate was administered intraperitoneally at 30 mg/kg dose (2 ml/kg b.d.w. volume from the […] solution) 30 min before capsaicin challenge. Codeine is a known cough suppressant.
(§5) Three experimental groups were involved in this study: Vehicle, suplatast tosilate and codeine treated groups. Each group contained n=16 guinea pigs. Altogether, 48 guinea pigs were used for this study.
(§6) On day 0 the naïve animals were treated i.p. either with codeine or suplatast tosilate. 30 min later the cough challenge was applied. 14 days later the animals were anaesthetized by ketamin/xilazine/acepromazine 10/2/0.1 mg/kg at 1 mL/kg i.m. The trachea was prepared and 8 U/kg bodyweight (1 mL/kg volume in sterile saline) bleomycin was injected slowly into the trachea. The wound was closed by sutures. 14 days after bleomycin injection the animals were treated with the test molecules and exposed to capsaicin spray again.
(§7) The capsaicin cough-challenge protocol was applied both on day 0 naïve animals and on day 28 on bleomycin treated animals. The guinea pigs were exposed to 30 μM capsaicin spray 30 min after the test item administration. The 30 μM capsaicin spray was generated by a compressed air nebulizer (DeVilbiss Pulmoaid) connected to a transparent chamber (6.7 l volume). Compressed air with a flow of 0.16 l/s and pressure of 0.5 bar produced the spray. The capsaicin vapour penetrated into the chamber through a short tube driven by constant air flow. The animals were put into a transparent chamber individually and exposed to the capsaicin (30 μM capsaicin was diluted by water from 10^-2 M alcoholic capsaicin stock solution) aerosol for 10 minutes. The number of coughs during the 10 min inhalation period and the subsequent 5 min was counted. The coughing of the animals was defined as a strong contraction of abdomen which was followed by forced expiration through the opened mouth of the animals. Two trained technicians monitored in parallel the exposed animals and counted the cough numbers independently from each-others.
(§8) The cough numbers in each group were expressed as median and inter quartile range on the figures and mean±SD on tables. The percentage antitussive effect was also calculated.

[3] = test system: patients with Cough Variant Asthma; conditions: cited from earlier work
[4] = test system: guinea-pigs (airway cough hypersensitivity, allergic eosinophilic inflammation); conditions: cited from earlier work
[5] = test system: guinea pigs (enalapril plus citric acid induced cough); experiment: Cough induced by enalapril plus citric acid in guinea pigs; assay type: in vivo, guinea pig; conditions: 30 mg/kg i.p. 30 min before 10% citric acid spray; enalapril 1.3 mg/kg s.c.; whole 8-min observation; mean±S.E.M.; n=6; vehicle 11.2±2.6
Experimental: as §3, with “The method is described in detail by Zhou et al: Pharmacology. 2015; 95(1-2): 36-41. In brief: Male” for “Male”, “open cages” for “individually ventilated cabinets”
The enalapril maleate was dissolved in sterile saline (Salsol infusion, Teva) at 1.3 mg/mL concentration and was applied subcutaneously at 1.3 mg/kg dose (1 mL/kg b.d.w. volume from the 1.3 mg/mL solution) 30 min before vehicle, suplatast tosilate or administration. […]
The guinea pigs were exposed to 10% citric acid spray 30 min after the test item administration. […] The number of coughs during the 3 min inhalation period and the subsequent 5 min was counted. […] The sound of the cough was monitored by a microphone connected to a loudspeaker placed into the cough chamber. A trained technician monitored the exposed animals and counted the cough numbers.
The average cough numbers in each group was expressed as mean±S.E.M. The percentage antitussive effect was also calculated.

[6] = Solubility in dosing vehicle; assay type: physicochemical; conditions: 10% PEG400/saline mixture; 30 mg/mL dosing solution
Experimental: The vehicle for suplatast tosilate was 10% PEG400/saline mixture. Suplatast tosilate was well soluble in this mixture. ST was administered intraperitoneally at 30 mg/kg dose (1 ml/kg b.d.w. volume from the 30 mg/mL solution/suspension) 30 min before citric acid challenge. 6 guinea pigs were included in the vehicle group and in the ST group.
The vehicle for suplatast tosilate (ST) is 10% PEG400/saline mixture. ST is well soluble in this mixture. ST is administered intraperitoneally at 30 mg/kg dose (1 ml/kg b.d.w. volume from the 30 mg/mL solution/suspension) 30 min before citric acid challenge. 6 guinea pigs were included in the vehicle and in the ST groups.

[7] = test system: patients with non-atopic asthma or chronic bronchitis; conditions: cited from earlier work
Atopic cough = conditions: after four weeks of treatment; cited from earlier work
[8] = test system: naive guinea pigs (capsaicin inhalation-induced cough); experiment: 30 uM capsaicin cough challenge on naive animals; assay type: in vivo, guinea pig; conditions: for inhibition at 30 mg/kg: Cavia porcellus, ip; for mean cough, 10 min exposure: 30 mg/kg i.p. 30 min before 30 uM capsaicin, vehicle 9.3; for mean cough, 10 min exposure / mean cough, 5 min observation / mean cough, 10 + 5 min: n=16; for mean cough, 5 min observation: 5 min post-exposure period, vehicle 2.4; for mean cough, 10 + 5 min: vehicle 11.7; for antitussive effect (conclusion in words): capsaicin challenge
Experimental: as §1, §2, §3, §4, §5, §6, §7, §8

[9] = test system: guinea pigs (enalapril plus citric acid induced cough); conditions: Zhou et al 2015; cited from earlier work
[10] = test system: Idiopathic Pulmonary Fibrosis (IPF); conditions: cited from earlier work
[11] = test system: patients receiving the drug; conditions: cited from earlier work
[12] = bleomycin-treated, 30 mg/kg i.p.
[13] = bleomycin-treated, 30 mg/kg i.p., whole 15-min observation
[14] = naive animals, 30 mg/kg i.p., whole 15-min observation
[15] = 5 min, read-out: Percentage inhibition (antitussive effect), 5 min observation
[16] = 10 min, read-out: Percentage inhibition (antitussive effect), 10 min exposure
[17] = read-out: Percentage inhibition (antitussive effect), 10 + 5 min

For CCOCC(O)COc1ccc(NC(=O)CC[S+](C)C)cc1.Cc1ccc(S(=O)(=O)[O-])cc1 (racemic) [Suplatast tosilate, (±)-3-{[4-(3-ethoxy-2-hydroxypropoxy)phenyl]amino}-3-oxopropyl)(dimethyl)sulfonium; 4-methylbenzenesulfonate], the “effect on refractory chronic dry cough” value [1] is listed as “benefit refractory chronic dry cough”, the inhibition at 30 mg/kg ([2]; 5 min, bleomycin-treated, 30 mg/kg i.p., post-exposure period, versus vehicle, read-out: Percentage inhibition (antitussive effect), 5 min observation) is listed as 77.7% and the inhibition at 30 mg/kg ([2]; 10 min, bleomycin-treated, 30 mg/kg i.p., versus vehicle, read-out: Percentage inhibition (antitussive effect), 10 min exposure) is listed as 42.8%. The inhibition at 30 mg/kg ([2]; bleomycin-treated, 30 mg/kg i.p., whole 15-min observation, versus vehicle, read-out: Percentage inhibition (antitussive effect), 10 + 5 min) was 53.2%, the “mean cough, 10 min exposure” value [2] was 30.3 and the “antitussive effect (conclusion in words)” value ([2]; 30 mg/kg i.p.) was “relevant and statistically significant antitussive effect”. For the same compound, the “mean cough, 5 min observation” value [2, 12] was 5, the “mean cough, 10 + 5 min” value [2, 13] was 35.3 and the “effect on cough in capsaicin challenge” value [3] was “improving cough”. For the same compound, the “acute effect on capsaicin induced cough” value ([4]; acute administration, airway allergy guinea-pig model) was “does not acutely reduce capsaicin induced cough”, the “effect on airway cough hypersensitivity” value ([4]; sub-chronic administration, allergic eosinophilic inflammation, listed as ST) was “reduce airway cough hypersensitivity; also recorded: inhibiting airway cough hypersensitivity” and the cough number [5] was 7.2±2.8. For the same compound, the solubility in vehicle [6] was “well soluble”, the “effect on cough reflex sensitivity” value [7] was “does not change the cough reflex sensitivity” and the “effect on cough threshold” value (Atopic cough) was “decreasing cough threshold”. For the same compound, the inhibition at 30 mg/kg ([8]; 5 min, naive animals, 30 mg/kg i.p., post-exposure period, versus vehicle, read-out: Percentage inhibition (antitussive effect), 5 min observation) was -51.9%, the inhibition at 30 mg/kg ([8]; 10 min, naive animals, 30 mg/kg i.p., versus vehicle, read-out: Percentage inhibition (antitussive effect), 10 min exposure) was -5.4% and the inhibition at 30 mg/kg ([8]; naive animals, 30 mg/kg i.p., whole 15-min observation, versus vehicle, read-out: Percentage inhibition (antitussive effect), 10 + 5 min) was -15%. For the same compound, the “mean cough, 10 min exposure” value ([8]; naive animals) was 9.8, the “mean cough, 5 min observation” value ([8]; naive animals, 30 mg/kg i.p.) was 3.7 and the “Percentage inhibition (antitussive effect), 5 min observation” value ([8]; naive animals, 30 mg/kg i.p., post-exposure period, versus vehicle, 30 mg/kg) was “did not show antitussive effect”. For the same compound, the “Percentage inhibition (antitussive effect), 10 min exposure” value ([8]; naive animals, 30 mg/kg i.p., versus vehicle, 30 mg/kg) was “did not show antitussive effect”, the “mean cough, 10 + 5 min” value [8, 14] was 13.4 and the “antitussive effect (conclusion in words)” value ([8]; naive animals, 30 mg/kg i.p.) was “did not show antitussive effect”. The “effect on citric acid+enalapril induced cough” value [9] was “reduce citric acid+enalapril induced cough”.
COc1ccc2c3c1O[C@H]1[C@@H](O)C=C[C@H]4[C@@H](C2)N(C)CC[C@@]341 [Codeine, codeine] gave an inhibition at 30 mg/kg [2, 15] of 76.2%, an inhibition at 30 mg/kg [2, 16] of 72.9% and an inhibition at 30 mg/kg [2, 17] of 73.9%. For the same compound, the “mean cough, 10 min exposure” value [2] was 14.3, the “antitussive effect (conclusion in words)” value ([2]; 30 mg/kg i.p.) was “showed antitussive effect” and the “mean cough, 5 min observation” value [2, 12] was 5.3. For the same compound, the “mean cough, 10 + 5 min” value [2, 13] was 19.7, the inhibition at 30 mg/kg [8, 15] was 97.4% and the inhibition at 30 mg/kg [8, 16] was 43.9%. For the same compound, the inhibition at 30 mg/kg [8, 17] was 55%, the “mean cough, 10 min exposure” value ([8]; naive animals) was 5.2 and the “mean cough, 5 min observation” value ([8]; naive animals, 30 mg/kg i.p.) was 0.1. For the same compound, the “mean cough, 10 + 5 min” value [8, 14] was 5.3 and the “antitussive effect (conclusion in words)” value ([8]; naive animals, 30 mg/kg i.p.) was “showed antitussive effect”.
In the case of COC(=O)c1ccc2c(c1)NC(=O)/C2=C(\Nc1ccc(N(C)C(=O)CN2CCN(C)CC2)cc1)c1ccccc1 [Ofev (nintedanib), nintedanib], the “effect on decline of lung function” value [10] is given as “slow the decline of lung function” and the “effect on mortality and lung function” value [10] is given as “has not been shown to reduce mortality or improve lung function”.
In the case of CCCCc1oc2ccccc2c1C(=O)c1cc(I)c(OCCN(CC)CC)c(I)c1 [amiodarone], the “patients who get pulmonary fibrosis” value [11] is listed as “up to 40%”.
In the case of O=C1CN(/N=C/c2ccc([N+](=O)[O-])o2)C(=O)N1 [nitrofurantoin], the “patients who get pulmonary fibrosis” value [11] is given as 0.01%.
